# A melting point compilation (Tetko et al.; mined from patent text by program, amines drawn as free bases though some values may be those of a salt)
row,melting point [°C],Compound
1,271,Cc1ccc(N2C(=O)C(O)=C(C(=O)c3ccc(C(C)C)cc3)C2c2ccc(Cn3ncnn3)cc2)nn1 (centres undefined)
2,143 to 144,CCOC(=O)c1cn(-c2ccccc2)nc1OCc1oc2cc(OCc3nc(-c4ccccc4)oc3C)ccc2c1-c1ccccc1
3,242,COC(=O)c1cccc(Nc2nc(Cl)nc3[nH]cnc23)c1
4,120,COc1c(/C=C/c2ccc(C#N)cc2)c(C)cc2c1C(C)(C)CCC2(C)C
5,69 to 70,CC(NO)C(=O)OC(C)(C)C (centres undefined)
6,224 to 226,NS(=O)(=O)c1ccc(NC(=O)NC2CCCC2)cc1
7,49 to 50.5,Cc1ccc(SN(C)C=Nc2ccc(Cl)cc2C)cc1
8,158 to 159,CC(=O)c1cccc(Nc2c3ccccc3nc3occc23)c1
9,272 to 274,O=C1OCc2c1nc1ccc3c(c1c2-c1ccc2c(c1)OCO2)OCO3
10,85 to 93,ON=CCCc1ccccc1
11,104 to 105,CCCCc1nc2ccc(C(C)=O)cc2c(=O)n1Cc1ccc(-c2ccccc2-c2nnnn2C(c2ccccc2)(c2ccccc2)c2ccccc2)cc1
12,186 to 191,CC(=O)Nc1ccccc1C(=O)NC(=O)Nc1ccc(Oc2ncc(Br)cn2)c(C)c1
13,135 to 137,CCOC(=O)c1cnn2c(-c3cccc(C)n3)ccnc12
14,> 300,Nc1ncc2c(n1)N(c1ccccc1)C(=O)N(c1c(Cl)cccc1Cl)C2
15,208 to 210,CCc1cc(C(=O)c2ccccc2Cl)c(-n2c(C)nnc2CNC(=O)c2cc3ccccc3n2CC(=O)O)s1
16,270 to 271,Nc1ccc2c(c1)C(=O)N(c1ccc(C(=O)O)cc1)C2=O
17,105 to 109,O=C(NC1CCCCC1)NC1(N=NC2(NC(=O)NC3CCCCC3)CCCCC2)CCCCC1
18,160 to 163,CN(C(N)=O)C1CCCc2ccccc21 (centres undefined)
19,113 to 114,CCOC(=O)c1sc(SC)c2c1CCC(C(OCC)OCC)C2=O (centres undefined)
20,180 to 185,CSC(=S)NN=Cc1nc(-c2ccccc2)[nH]c1C
21,126 to 127,CNC(=O)OC1Oc2ccc(OS(C)(=O)=O)cc2C1(C)C (centres undefined)
22,160 to 161,CCCCOc1c(CNC(=O)OC(C)(C)C)n(CC(C)C)c(=O)c2ccc(-c3nc(C#N)cs3)cc12
23,103 to 104,Cc1cc(C)c(C(O)c2ccc(C(C)C)cc2)c(O)c1 (centres undefined)
24,49 to 50,CCOC(=O)c1cc(C)c(OCCCc2cc(C)no2)c(C)c1

row,melting point [°C],Compound
1,96,CCOC(=O)C=CC1C(C(=O)O)C1(C)C (centres undefined)
2,142 to 143,CCOCCNS(=O)(=O)NC(=O)OCc1ccc(OCCOC)cc1Oc1ncc(C(F)(F)F)cc1Cl
3,144 to 145,Cc1oc(-c2ccccc2)nc1CCOc1ccc(CCl)c2sccc12
4,147,CCC(C)NC(=O)n1c(=O)nc(N2CCOCC2)n1C (centres undefined)
5,86 to 88,CCC(C(=O)N(C)C)n1cc(C)c(-c2ccccc2)n1 (centres undefined)
6,140 to 142,CCOC(=O)c1cc2cc(O)ccc2n1C
7,> 250,Cc1cc(Cl)cc2[nH]c(=O)c(=O)[nH]c12
8,222 to 223,Cn1c(=O)nc(-c2ccccc2F)c2ccsc21
9,175 to 178,Oc1ccc(CN(Cc2ccc(O)c3ncccc23)Cc2ccc(O)c3ncccc23)c2cccnc12
10,114 to 116,OCC(O)Cc1nccn1CCCCc1ccc(OCc2coc(/C=C/c3ccc(F)cc3)n2)cc1 (centres undefined)
11,132 to 133,O=C(O)CCCC(=O)S[C@@H]1CC(=O)N(Cc2ccc(Oc3ccc(F)cc3)nc2)C1
12,75 to 77,O=C1CCCCC1=CC(=O)c1ccccc1
13,78 to 78.5,CCOCc1nc2c(N)nc(C)c(C)c2n1CCOCCCc1cccnc1
14,211 to 212,C=CCNc1nc(NCCC)c2cc([N+](=O)[O-])ccc2n1
15,149 to 150,CNC(=O)Cc1ccc2ccn(C3CCN(CCc4ccc(F)cc4)CC3)c2c1
16,91,CC(=O)OCC1OC(N(CCCl)P(=O)(O)NCCCl)C(OC(C)=O)C(OC(C)=O)C1OC(C)=O (centres undefined)
17,228 to 229,O=C(c1ccco1)c1cnn2c(-c3cccnc3)ccnc12
18,66.5,C=C(C)CN1C[C@H](C)Nc2c(cc(Cl)cc2[N+](=O)[O-])C1=O
19,163,CN(C)c1ccccc1CC(=O)N1C[C@@H]2SCCC(c3ccccc3)(c3ccccc3)[C@@H]2C1 (racemic)
20,100 to 101,CCN1CCCC1CNC(=O)c1nc(Cl)c(OC)nc1OC (centres undefined)
21,202,NC(=O)N(C(=O)c1c(F)cccc1Cl)c1ccc(SC(F)(F)F)cc1
22,118 to 119,C/C(=C\Cn1oc(=O)[nH]c1=O)c1cccc(OCc2nc(-c3ccccc3)oc2C)c1
23,167 to 169,Cn1nc2ccccc2c1C(=O)NC1CCN(Cc2ccccc2)CC1
24,68 to 70,CC(C)=C(C(=O)OCc1ccccc1)N1C(=O)C(Br)(Br)C1Br (centres undefined)

row,melting point [°C],Compound
1,120 to 123,CC(C)(C)OC(=O)NCCNC(=O)c1cc(Cl)ccn1
2,200 to 204,COC(=O)Nc1nc2cc(SCC3CCCCC3)ccc2[nH]1
3,77 to 92,Clc1cc(N2CCCC2)nc(N2CCNCC2)n1
4,140,CC(C)(c1ccc(O)cc1)c1ccc(O)c(C(=O)Oc2ccccc2)c1
5,60 to 62,Cc1cccc(-c2ccc(OS(=O)(=O)C(F)(F)F)cc2C=O)c1
6,127,C[C@@H]1CCNC[C@@H]1N(C)c1nccc2[nH]ccc12
7,150 to 152,NNC(=S)Cc1ccc(F)cc1
8,82,NC(=NCC(F)(F)F)Nc1ccn(CCO)n1
9,168 to 170,O=C1C2CCCCN2C(=O)N1c1c(F)cc(Cl)c2nc(Cl)sc12 (centres undefined)
10,289 to 291,COc1cccc2c(=O)n(/C=C/C(=O)O)cnc12
11,176 to 178,CCCCCCCCc1cc2c(cc1/C(C)=C/c1ccc(C(=O)O)cc1)C(C)(C)CCS2(=O)=O
12,47 to 49,CCCCc1oc2ccccc2c1C(O)c1ccc(-c2ccc(O)cc2)cc1 (centres undefined)
13,87,COC[C@H]1CN(c2ccc(OCCC3(O)CCCCC3)cc2)C(=O)O1
14,183 to 189,O=C(c1ccccc1)N1CCC(Cc2ccccc2)(C(=O)O)CC1
15,210,CCCCS(=O)(=O)c1ccc(C(=O)Nc2ccc3cc(CN4CCCC4)cnc3c2C)cc1
16,123 to 128,CC(C)Cc1ccc(C(C)C(=O)ON(C(N)=O)C(C)c2cc3ccccc3s2)cc1 (centres undefined)
17,90,CC(C)(SCc1cc2cc(C(F)(F)F)ccc2n1S(=O)(=O)c1ccccc1)C(=O)O
18,51 to 54,CCC(=O)c1ccc(OC)c(Cl)c1Cl
19,127,CC(=O)N[C@@H]1CN2C(=O)N(c3cc(Cl)nc(Cl)c3)C(=O)[C@@]2(Cc2ccc(OC(F)(F)F)cc2)C1
20,161 to 162,CCCCOc1ccc2sc(-c3ccccn3)nc(=O)c2c1
21,96,CC(C)(C)NCCCOc1ccccc1Cc1cccc2[nH]ccc12
22,146 to 149,O=C(CCl)Nc1cc(Oc2ncccc2C(F)(F)F)c(Cl)cc1F
23,214 to 215,Cn1cc(C2=C(c3cn(CCCNc4ncccn4)c4ccccc34)C(=O)NC2=O)c2ccccc21
24,82 to 87,CCCCNC1CC(C)(C)N(c2nc(N3CCOCC3)nc(N3CCOCC3)n2)C(C)(C)C1

row,melting point [°C],Compound
1,231 to 233,O=C(O)C=C[C@H](Cc1ccc(-c2ccccc2)cc1)NCP(=O)(O)O
2,269 to 270,O=C(O)c1cccc2sc3ccccc3c(=O)c12
3,148 to 149,Cc1c(-c2ccc(Cl)cc2)c2cc(OC(C)(C)C(=O)O)ccc2n1C
4,207 to 208,CC1(C)CC(c2ccccn2)c2cc(C(=O)O)ccc2O1 (centres undefined)
5,71.5 to 74.5,O=S(=O)(Cc1ccccc1)N(c1ncc(-c2ccccc2)nc1Cc1ccccc1)S(=O)(=O)Cc1ccccc1
6,270 to 271,CCn1c(=O)c2[nH]c(/C=C/c3ccc(OCOC)cc3)nc2n(CC)c1=O
7,86.9 to 88.7,COc1c(F)cc2[nH]c(C)c(CC(=O)OCC[Si](C)(C)C)c2c1F
8,215 to 218,CC1(C)CC(=O)c2c(SCc3ccccc3)sc(-c3cc[nH]n3)c2C1
9,190 to 195,CC1(C)NC(=O)c2cc(OCCBr)ccc2O1
10,101 to 104,CCCc1c(OCCCCCOc2ccc(CCCCC(=O)O)cc2CCC(=O)O)ccc2c1OCCC2=O
11,238 to 239,CC(C)(C)CC(NC(=O)c1cccc(Cl)c1)Nc1c(Nc2cccnc2)c(=O)c1=O (centres undefined)
12,160,COC(=O)c1ccc(NS(C)(=O)=O)c(C=NO)c1
13,89 to 91,COc1cc(Br)cc(C23CC4CC(CC(C4)C2)C3)c1OCc1ccccc1
14,96 to 99,CS(=O)(=O)c1ccc(-c2[nH]nc(OC3CCCC3=O)c2-c2ccc(F)cc2)cc1 (centres undefined)
15,100 to 103,Cc1sc2c(c1CCN1CCC(c3noc4cc(F)ccc34)CC1)CCN(C)C2
16,53,COc1cc(C)c(CCCCCCCCCCCCCCCCCCOC(C)=O)c(O)c1OC
17,231 to 233,Nc1ncnc2sc(Cc3ccccc3)c(-c3ccc([N+](=O)[O-])cc3)c12
18,187,CC1(C)NS(=O)(=O)c2cc([N+](=O)[O-])ccc21
19,159 to 161,COc1ccc(N2N=C3c4cc(Cl)ccc4SCCC3CC2=O)cc1 (centres undefined)
20,130 to 132,O=C(O)Cc1ccc2c(c1)N(C1CCN(CCc3ccc(F)cc3)CC1)CC2
21,149 to 151,CCc1[nH]n(C2CCCC2)c2nc(CN3CCc4ccccc4C3)nc(=O)c1-2
22,101 to 102,CCCCCCCCCCCCCCCc1cccc(OC)c1C1NC(=O)NC(C)=C1C(=O)OC (centres undefined)
23,168 to 169,O=C(c1ccccc1)[C@]1([N+](=O)[O-])[C@H](c2ccccc2)[C@H]2C[C@H](O)[C@@H]1C2 (relative stereo)
24,102 to 104,CCC1(CC)c2cc(-c3cc4ccccc4[nH]3)ccc2-c2ccc(N(c3ccccc3)c3ccccc3)cc21

row,Compound,melting point [°C]
1,ClC1=Nc2ccccc2Oc2ccccc21,53 to 55
2,O=[N+]([O-])c1cc(F)ccc1N1CCNCC1,85 to 87
3,CC(=O)NC(=O)NCC1CC2c3cccc4[nH]c(Br)c(c34)CC2N(C)C1 (centres undefined),210 to 212
